Data from the NIST ThermoML archive (doi:10.1016/j.jct.2006.06.008).

Test: xn = mol fraction of the nth substance listed
Conditions: 101 kPa, Liquid

CCCCO [butan-1-ol] + C1CCCC1
x2 = 0
Conditions	mass density [kg/m3]	speed of sound [m/s]	viscosity [mPa·s]
293.15 K	809.5	1257	2.941
298.15 K	805.75	1240	2.571
303.15 K	801.8	1224	2.255

CCCCO [butan-1-ol] + C1CCCCC1
x2 = 0
Conditions	mass density [kg/m3]	speed of sound [m/s]	viscosity [mPa·s]
293.15 K	809.5	1257	2.941
298.15 K	805.75	1240	2.571
303.15 K	801.8	1224	2.255

C1CCCCC1 [cyclohexane] + CCCCO
Conditions	mass density, 293.15 K [kg/m3]	mass density, 298.15 K [kg/m3]	mass density, 303.15 K [kg/m3]	speed of sound, 293.15 K [m/s]	speed of sound, 298.15 K [m/s]	speed of sound, 303.15 K [m/s]	viscosity, 293.15 K [mPa·s]	viscosity, 298.15 K [mPa·s]	viscosity, 303.15 K [mPa·s]
x1 = 0.0491	807.27	803.41	799.52	1254	1237	1220	2.777	2.437	2.147
x1 = 0.0988	804.96	801.04	797.08	1252	1234	1217	2.593	2.278	2.009
x1 = 0.2003	800.76	796.72	792.63	1249	1230	1211	2.254	1.984	1.756
x1 = 0.3081	796.54	792.37	788.15	1246	1227	1207	1.937	1.712	1.514
x1 = 0.4082	792.86	788.57	784.23	1245	1224	1204	1.684	1.492	1.33
x1 = 0.5125	789.41	785.01	780.55	1245	1224	1202	1.449	1.293	1.16
x1 = 0.6157	786.28	781.77	777.21	1247	1225	1202	1.257	1.13	1.023
x1 = 0.7086	783.78	779.19	774.55	1250	1227	1204	1.121	1.014	0.928
x1 = 0.8022	781.56	776.91	772.21	1255	1231	1208	1.047	0.955	0.874
x1 = 0.9029	779.62	774.9	770.14	1263	1239	1215	0.995	0.904	0.829
x1 = 0.9519	778.88	774.15	769.37	1269	1244	1220	0.972	0.889	0.817
x1 = 1	778.62	773.92	769.19	1279	1254	1230	0.968	0.887	0.816

C1CCCCC1 [cyclohexane] + CCCO
Conditions	mass density, 293.15 K [kg/m3]	mass density, 298.15 K [kg/m3]	mass density, 303.15 K [kg/m3]	speed of sound, 293.15 K [m/s]	speed of sound, 298.15 K [m/s]	speed of sound, 303.15 K [m/s]	viscosity, 293.15 K [mPa·s]	viscosity, 298.15 K [mPa·s]	viscosity, 303.15 K [mPa·s]
x1 = 0.0487	801.17	797.11	793.02	1222	1205	1187	2.079	1.842	1.645
x1 = 0.0993	798.82	794.71	790.56	1222	1204	1186	1.958	1.74	1.552
x1 = 0.1967	794.76	790.54	786.28	1223	1204	1185	1.735	1.544	1.379
x1 = 0.2993	791.11	786.78	782.41	1225	1205	1185	1.544	1.38	1.234
x1 = 0.4017	787.98	783.54	779.05	1228	1207	1186	1.391	1.249	1.124
x1 = 0.5071	785.25	780.71	776.12	1233	1211	1189	1.253	1.126	1.015
x1 = 0.6048	783.08	778.47	773.8	1238	1215	1193	1.135	1.026	0.937
x1 = 0.7036	781.23	776.55	771.82	1244	1221	1198	1.036	0.941	0.858
x1 = 0.8062	779.66	774.94	770.17	1252	1228	1204	0.98	0.895	0.822
x1 = 0.9053	778.68	773.93	769.14	1262	1237	1213	0.972	0.887	0.816
x1 = 0.9522	778.41	773.66	768.87	1268	1243	1219	0.969	0.892	0.81
x1 = 1	778.62	773.92	769.19	1279	1254	1230	0.968	0.887	0.816
